Reference: patent US20090286695A1, “LUMINESCENT STEM CELLS AND USES THEREOF” (AXXAM S.P.A., priority 2006, published 2009)

Assays:
Assay type in all cases: cell-based, mouse
α1-Adrenergic Receptor = experiment: CCD camera-based luminescent functional test on cardiomyocytes differentiated from ES/mito c-Photina/29 clone; conditions: 100 μM; 20,000 c/w in 96 MTP; 10 μM coelenterazine; high sens., 60 sec; FIG. 8A
[1] = system: GqPCR Endothelin Receptors; experiment: as above; conditions: 50 nM; 20,000 c/w in 96 MTP; 10 μM coelenterazine; high sens., 60 sec; FIG. 8A
Procedure: CCD-Camera Based Luminometer Measurements with Cardiomyocytes • EBs were dissociated at differentiation day 9 with Accutase™ (Chemicon, Cat. N. SCR005), counted and incubated (20000 cells/well in a 96 MTP) in 10 μM coelenterazine in standard tyrode buffer (for the test on GqPCRs) and in tyrode without KCl (for the test on L-type Calcium Channels) for 3 hrs at 37° C. • The tests were run 3 h after cell seeding. • The responses to 50 nM Endothelin-1, 100 μM Noraepinephrine were measured at the CCD camera-based luminometer (conditions: high sensitivity, reading time 60 seconds). • The Voltage gated Calcium Channels were stimulated with 40 mM KCl. The specificity of the channels was checked incubating the cells 15 minutes before he measurement with 5 μM Nifedipine (a specific L-type Voltage-gated Calcium Channel inhibitor) (SIGMA, Cat. N. N7634). • Residual total photoprotein activity was measured after Triton X-100 cell lysis at the CCD camera-based luminometer (conditions: high sensitivity, for 30 seconds). Neuronal Differentiation Protocol with the Embryoid Bodies (EBs) Formation Step
Preliminary functional tests were performed at the CCD camera-based luminometer instrument after Embryoid Bodies disaggregation with Accutase® buffer and resuspension in 10 μM coelenterazine tyrode buffer. The cells were counted and seeded at a cellular concentration of 20,000 c/w in a 96 MTP. […]

[2] = system: Voltage-gated Calcium Channels; experiment: CCD camera-based luminometer test on neurons differentiated from P19/mito c-Photina/1A1 clone; conditions: 40 mM; differentiation day 8 and 11; 384 MTP; tyrode as control; FIG. 21
Procedure: At day 8 and day 11 of the neuronal differentiation protocol (respectively 4 and 7 days after seeding in poly D-lysine coated 384 MTP), neurons differentiated from P19/mito c-Photina®/1A1 clone were incubated with 25 μl/well of 10 μM coelenterazine in standard tyrode buffer, for 4 hrs at 37° C.
Response to a depolarizing stimulus induced by injection of 40 mM KCl was recorded at CCD camera-based luminometer (conditions: high sensitivity, reading time 60 seconds).
The functionality of these cells was also investigated at CCD camera-based luminometer. At differentiation day 8 and 11 (respectively 4 and 7 days after disaggregation of Embryoid Bodies and seeding on poly D-lysine in 384 MTP), the cells were incubated for 4 h with a tyrode solution containing 10 μM coelenterazine.

[3] = system: neurons differentiated from P19/mito c-Photina/1A1 clone; experiment: FLIPR384 Fluo-4 NW test on neurons differentiated from P19/mito c-Photina/1A1 clone; conditions: 40 mM, differentiation day 8, FIG. 22
Procedure: 12.5 μl/well of 120 mM KCl (3×) solution was injected, and the fluorescence signal was recorded for 360 sec and expressed as RFU (Relative Fluorescence Units).
At differentiation day 8 the same cells were analyzed also at FLIPR^384 incubating the cells with FLUO-4 NW® and injecting 40 mM KCl depolarizing agent.

[4] = system: Metabotropic or Ionotropic Glutamate Receptors; experiment: FLIPR384 Fluo-4 NW calcium test on undifferentiated and neuron-differentiated P19/mito c-Photina/1A1 clone; conditions: 100 μM final; undifferentiated cells vs day 8 neurons; FIG. 23
Procedure: Concerning undifferentiated P19/mito c-Photina®/1A1 clone, 3000 cells/well were seeded in gelatin coated 384 well plates. 24 h after seeding the cells were incubated with 25 μl/well of Fluo-4 NW® calcium sensitive fluorescent dye in the dark.
Concerning neurons differentiated from P19/mito c-Photina®/1A1 clone, at day 8 of the neuronal differentiation protocol (4 days after seeding in poly D-lysine coated 384 well plates) cells were incubated with 25 μl/well of Fluo-4 NW® calcium sensitive fluorescent dye in the dark.
Both plates were incubated for 30 minutes at 37° C. and then for 30 minutes at room temperature.
12.5 μl/well of the following 3× compounds in tyrode buffer were injected, and the fluorescence signal was recorded for 330 sec and expressed as RFU.
The same experiment was in contemporary performed on undifferentiated P19/mito c-Photina® 1A1 clone (at 24 h after seeding of 3000 cells/well in 384 MTP, FIG. 23A).

NC[C@H](O)c1ccc(O)c(O)c1 [Norephinephrine]
luminescence response (calcium) to agonist (α1-Adrenergic Receptor): strong

Endothelin-1
luminescence response (calcium) to agonist [1]: strong

[Cl-].[K+] [KCl]
luminescence response to depolarizing stimulus [2]: optimal responses | fluorescence signal (calcium entry) after depolarizing agent [3]: sensible increase of the signal

N[C@@H](CCC(=O)O)C(=O)O [Glutamate]
fluorescence signal after stimulation, undifferentiated vs differentiated cells [4]: much higher in the differentiated cells than in the undifferentiated ones
